In US9642829B2, “Antifungal compound and uses thereof” (The University of Hong Kong, priority 2012, dated 2017):

Columns and labels:
[1] = test system: mixed species Candida biofilms; assay: Mixed species Candida biofilm MIC, XTT reduction assay; assay type: cell-based; settings: 48 h mixed species biofilms, two Candida species at 1×10^7 cells/ml each
Protocol: Clinical studies have shown that some of the Candida species could involve mixed Candida species such as C. albicans with non-albicans Candida species. Therefore, next we formed mixed species biofilms using the methods we have used in our previous published studies. This methodology is essentially similar to what mentioned under mono-species biofilms except initial inoculums involve two Candida species at equal inoculums size of 1×10^7 cells/ml. After 48 h of growth, mixed species Candida biofilms were subjected to serially diluted concentration of SM21 and MIC was determined by XTT reduction assay (FIG. 5).

[2] = test system: C. albicans drug resistant isolate; assay: Susceptibility of multidrug resistant clinical isolates, CLSI M27A broth microdilution; assay type: cell-based, Candida albicans; settings: C. albicans T1675; resistant to Fluconazole, Itraconazole
From the text: (§1) Oral Biosciences laboratory has one of the largest collections of fungal isolates, particular that of Candida species in the world. In our previous studies, we have found multidrug resistant clinical isolates of Candida species against existing antifungals. In particular, some of these strains are resistant to best antifungal agents to date such as caspofungin, amphotericin B and fluconazole. Therefore, we performed antifungal susceptibility testing for SM21 against these drug resistant Candida isolates suing CLSI M27A brothmicrodultion assay and CLSI M44-A disc diffusion assay.

C. albicans [3] = assay: Antifungal susceptibility (MIC/MFC), CLSI criteria, 96-well double dilution; assay type: cell-based, Candida albicans; settings: for Susceptibility (MIC90): 0.5 McFarland inoculum (10^6 cells/ml)
Protocol: Antifungal activity of the small molecules was evaluated using USA standards, Clinical and Laboratory Standards Institute (CLSI) criteria. In brief, inocula from 24 h Candida cultures on Sabourauds's dextore agar were standardized to a turbidity equivalent of 0.5 McFarland standards at 520 nm with a spectrophotometer. The suspensions were further diluted in Rosewell Park Memorial Institute (RPMI) 1640 medium (Life technologies, New York, USA) to yield an inoculum concentration of approximately 0.5 1×10^3 to 2.5 1×10^3 cells/ml. Minimum inhibitory concentration (MIC) and minimum fungicidal concentration (MFC) assay was performed in 96-well plates (Iwaki, Tokyo, Japan) and each of the Candida species was exposed to a double dilution of SM21. Amphotericin B was used as a positive control. All the experiments were preformed three occasions with duplicates for all isolates. The plates were incubated at 35° C. for 48 h to evaluate MIC. In the case of Cryotococcus neoformans, reading were taken after 72 h. Aforementioned assay was performed for C. albicans ATCC 90028, C. albicans SC5314 and 10 C. albicans clinical isolates. Moreover, MIC/MFC determination was carried out for other fungal species such as C. glabrata, C. krusei, C. tropicalis, C. parapsilosis, C. neoformans, Aspergillus fumigates and Penicillium marneffei. […] Next using dose-dependent assay we tested that MIC/MFC of SM21 from 10^3 cells/ml to 10^7 cells/ml of C. albicans (Table 2). Each of the foregoing experiment was repeated on three different occasions.

C. krusei = assay: Antifungal susceptibility (MIC/MFC), CLSI criteria; assay type: cell-based, Candida krusei; settings: C. krusei ATCC; 0.5 McFarland inoculum (10^6 cells/ml)
Protocol: (§2) Antifungal activity of the small molecules was evaluated using USA standards, Clinical and Laboratory Standards Institute (CLSI) criteria. In brief, inocula from 24 h Candida cultures on Sabourauds's dextore agar were standardized to a turbidity equivalent of 0.5 McFarland standards at 520 nm with a spectrophotometer. The suspensions were further diluted in Rosewell Park Memorial Institute (RPMI) 1640 medium (Life technologies, New York, USA) to yield an inoculum concentration of approximately 0.5 1×10^3 to 2.5 1×10^3 cells/ml. Minimum inhibitory concentration (MIC) and minimum fungicidal concentration (MFC) assay was performed in 96-well plates (Iwaki, Tokyo, Japan) and each of the Candida species was exposed to a double dilution of SM21. Amphotericin B was used as a positive control. All the experiments were preformed three occasions with duplicates for all isolates. The plates were incubated at 35° C. for 48 h to evaluate MIC. In the case of Cryotococcus neoformans, reading were taken after 72 h. Aforementioned assay was performed for C. albicans ATCC 90028, C. albicans SC5314 and 10 C. albicans clinical isolates. Moreover, MIC/MFC determination was carried out for other fungal species such as C. glabrata, C. krusei, C. tropicalis, C. parapsilosis, C. neoformans, Aspergillus fumigates and Penicillium marneffei. […]

[4] = test system: C. albicans, C. glabrata, C. krusei, C. tropicalis, C. parapsilosis, C. neoformans, Aspergillus fumigates and Penicillium marneffei; assay: Antifungal activity against wide range of fungal species (summary); assay type: cell-based; settings: range over fungal species
Protocol: as §2

[5] = test system: Lactobacillus acidophilus; assay: Antibacterial activity (FIG. 3); assay type: cell-based; settings: dose of 2 μg
Protocol: (§3) FIGS. 3A-C. Antibacterial activity of SM21 at dose of 2 μg was examined for three bacterial species together with other antifungal agents caspofungin, amphotericin B and chlorhexidine. (A) Lactobacillus acidophilus (B) Streptococcus mutans and (C) Escherichia coli were used for the experiments.
as §1

Escherichia coli = assay: Antibacterial activity (FIG. 3); assay type: cell-based; settings: dose of 2 μg
Protocol: as §3, §1

Streptococcus mutans = assay: Antibacterial activity (FIG. 3); assay type: cell-based; settings: dose of 2 μg
Protocol: as §3, §1

C. albicans [6] = assay: Systemic candidiasis mouse model; assay type: in vivo; settings: i.v. C. albicans 1×10^6 cells/mL, 100 μl; 2 μg SM21 from 3 h post-infection, twice a day for five days
Protocol: As a pilot study, we used systemic candidiasis mouse models we have established in our laboratory to evaluate the effect of SM21 against systemic Candida infection. In brief, C. albicans inoculum of 1×10^6 cells/mL was prepared in phosphate buffered saline (PBS) eight mice were infected with 100 μl of the standard inoculum size intravenously via the tail vein. Three hours after post-infection four mice (test group) were given 2 μg of SM21 and other four (control group) were given PBS. SM21 treatment was continued twice a day for five days. By five days all mice in the control group died (FIG. 8). Mice in each test group were sacrificed according to the standard guidelines and their kidney, liver, pancreas, and spleen will be harvested. The fungal burden in the tissues will be assessed according to a standard protocol. In brief, part of the excised tissues were weighed individually and homogenized in sterile saline. Aliquots of 100 μL from tissue homogenates and their dilutions were plated on Sabouraud's dextrose agar and colonies were counted after 48 h of incubation at 37° C.

[7] = In vivo safety in mouse model; settings: 200 μg (100 times the effective dose of 2 μg) twice a day for five days
Protocol: Next, we used mouse model and treated the animals with 100 times of the effective dose (2 μg) i.e. 200 μg of SM21 twice a day for five days.

C. glabrata = assay: Antifungal susceptibility (MIC/MFC), CLSI criteria; assay type: cell-based, Candida glabrata; settings: C. glabrata ATCC; 0.5 McFarland inoculum (10^6 cells/ml)
Protocol: as §2

C. parapsilosis = assay: Antifungal susceptibility (MIC/MFC), CLSI criteria; assay type: cell-based, Candida parapsilosis; settings: C. parapsilosis ATCC; 0.5 McFarland inoculum (10^6 cells/ml)
Protocol: as §2

[8] = test system: C. glabrata drug resistant isolates; assay: Susceptibility of multidrug resistant clinical isolates, CLSI M27A broth microdilution; assay type: cell-based, Candida glabrata
From the text: as §1

[9] = test system: C. albicans SC5314 and C. albicans ATCC 90028; assay: Antifungal activity compared with caspofungin and amphotericin B (FIG. 2, CLSI M44-A disc diffusion); assay type: cell-based, Candida albicans
From the text: as §1

SMILES: CN(C)c1ccc(/C=C/c2cc(C(C)(C)C)[o+]c(C(C)(C)C)c2)cc1.[O-][Cl+3]([O-])([O-])[O-] [SM21]
- Active concentration (MIC by XTT reduction assay) against mixed species biofilms [1]: 25 µg/mL
- MIC [2]: 0.5 µg/mL
- Antifungal activity against clinical isolates (C. albicans [3]; 20 C. albicans strains isolated from HIV/AIDS patients): active against all isolates
- Susceptibility (MIC90) (C. albicans [3]; C. albicans ATCC 90028): 0.2 µg/mL
- Susceptibility (MIC90) (C. albicans [3]; C. albicans CL1): 0.2 µg/mL
- Susceptibility (MIC90) (C. albicans [3]; C. albicans CL2): 0.2 µg/mL
- Susceptibility (MIC90) (C. albicans [3]; C. albicans CL3): 1.6 µg/mL
- Susceptibility (MIC90) (C. albicans [3]; C. albicans CL4): 0.8 µg/mL
- Susceptibility (MIC90) (C. albicans [3]; C. albicans CL5): 1.6 µg/mL
- Susceptibility (MIC90) (C. albicans [3]; C. albicans CL6): 1.6 µg/mL
- Susceptibility (MIC90) (C. albicans [3]; C. albicans CL7): 0.8 µg/mL
- Susceptibility (MIC90) (C. albicans [3]; C. albicans CL8): 0.8 µg/mL
- Susceptibility (MIC90) (C. albicans [3]; C. albicans CL9): 1.6 µg/mL
- Susceptibility (MIC90) (C. albicans [3]; C. albicans CL10): 1.6 µg/mL
- Susceptibility (MIC90) (C. albicans [3]; C. albicans SC5314): 0.2 µg/mL
- Susceptibility (MIC90) (C. krusei): 0.4 µg/mL
- Concentration with antifungal activity against wide range of fungal species [4]: 0.2 to 6.25 µg/mL
- Antibacterial activity [5]: not anti-bacterial
- Antibacterial activity (Escherichia coli): not anti-bacterial
- Antibacterial activity (Streptococcus mutans): not anti-bacterial
- Survival of infected mice (C. albicans [6]): saved all the mice
- Detrimental effect in terms of weight reduction and side effects [7]: did not show any detrimental effect
- Susceptibility (MIC90) (C. glabrata): 1.6 µg/mL
- Susceptibility (MIC90) (C. parapsilosis): 1.6 µg/mL
- MIC ([8]; C. glabrata 1570, resistant to Itraconazole): 0.5 µg/mL
- MIC ([8]; C. glabrata T1585, resistant to Fluconazole, Itraconazole, ketoconazole, Voriconazole): 1 µg/mL
- MIC ([8]; C. glabrata T1672, resistant to Itraconazole, Ketaconazole): 0.5 µg/mL
- Susceptibility of the strain to the agent ([9]; C. albicans ATCC 90028, CLSI quality control strain (FIG. 2B)): susceptible
- Susceptibility of the strain to the agent ([9]; C. albicans SC5314 (FIG. 2A)): susceptible
